In ChEMBL document CHEMBL1201862, “PubChem BioAssay data set” (2004):
One block for each molecule: values may come before it. Calls of active or inactive are those of the source.

How the values were obtained:
[1] = CEM21 lymphoblast cell cytotoxicity, dose response, cytotoxicity control for viral fusion inhibitor project, CellTiter-Glo luminescence, cherry-picked (AID 652042); type: functional, cell-based;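 note: potency for signal decrease meaning cytotoxicity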
[2] = ZM109 Env clade C HIV-1 fusion inhibitors, dose response, HeLa effector, CEM target cells, luciferase, cherry-pick (AID 652058); type: functional, cell-based
[3] = inhibitors of clade B AD8 Env fusion, dose response, cell-based, cherry-pick (AID 652062); type: functional;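 note: luciferase signal from cell-cell fusion driven by HIV-1 clade B AD8 Env; potency is for inhibitors of fusion seen as a drop in luminescence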
[4] = off-target signal loss in HeLa-CEM21 co-culture – HeLa F-luc CTL cells, cherry-picked, counter-screen for HIV-1 Env fusion inhibitor project, dose response (AID 652040); type: functional, cell-based;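 note: potency for signal decrease marking cytotoxic or nonspecific inhibition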
[5] = inhibitors of HIV Env-driven cell fusion, dose response, cherry-pick (AID 652057); type: functional, cell-based
[6] = target: T1, DNA repair and recombination protein RAD54-like (Homo sapiens, UniProt Q92698); assay: inhibitors of human RAD54 branch migration, confirmation, biochemical, fluorescence, cherry-picked samples, dose series (AID 651657); type: functional
T1 sequence (Q92698 whole entry): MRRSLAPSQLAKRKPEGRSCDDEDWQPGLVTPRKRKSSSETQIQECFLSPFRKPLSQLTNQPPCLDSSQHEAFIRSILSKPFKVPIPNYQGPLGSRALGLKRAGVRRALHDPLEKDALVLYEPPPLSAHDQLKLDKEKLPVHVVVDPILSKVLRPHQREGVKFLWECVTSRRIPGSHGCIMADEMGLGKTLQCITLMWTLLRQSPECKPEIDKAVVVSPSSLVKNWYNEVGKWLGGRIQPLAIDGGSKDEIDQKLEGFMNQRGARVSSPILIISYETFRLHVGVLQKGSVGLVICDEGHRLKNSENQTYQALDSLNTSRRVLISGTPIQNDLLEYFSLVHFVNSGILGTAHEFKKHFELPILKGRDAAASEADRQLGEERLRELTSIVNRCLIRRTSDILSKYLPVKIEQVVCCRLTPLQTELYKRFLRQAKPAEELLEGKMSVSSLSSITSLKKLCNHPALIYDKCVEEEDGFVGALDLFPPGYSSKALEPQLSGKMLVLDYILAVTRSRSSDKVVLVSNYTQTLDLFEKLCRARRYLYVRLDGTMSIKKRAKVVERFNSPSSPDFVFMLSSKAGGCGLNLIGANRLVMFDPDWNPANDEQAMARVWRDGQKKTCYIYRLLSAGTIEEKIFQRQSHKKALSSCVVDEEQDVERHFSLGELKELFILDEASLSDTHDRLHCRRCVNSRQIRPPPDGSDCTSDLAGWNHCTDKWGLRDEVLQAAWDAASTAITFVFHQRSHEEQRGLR

[7] = target: T2, Zinc finger protein mex-5 (Caenorhabditis elegans, UniProt Q9XUB2); assay: MEX-5/TCR-2 RNA interaction inhibitors, dose response, biochemical, C. elegans, fluorescence polarization (AID 1960)
T2 sequence (Q9XUB2 whole entry): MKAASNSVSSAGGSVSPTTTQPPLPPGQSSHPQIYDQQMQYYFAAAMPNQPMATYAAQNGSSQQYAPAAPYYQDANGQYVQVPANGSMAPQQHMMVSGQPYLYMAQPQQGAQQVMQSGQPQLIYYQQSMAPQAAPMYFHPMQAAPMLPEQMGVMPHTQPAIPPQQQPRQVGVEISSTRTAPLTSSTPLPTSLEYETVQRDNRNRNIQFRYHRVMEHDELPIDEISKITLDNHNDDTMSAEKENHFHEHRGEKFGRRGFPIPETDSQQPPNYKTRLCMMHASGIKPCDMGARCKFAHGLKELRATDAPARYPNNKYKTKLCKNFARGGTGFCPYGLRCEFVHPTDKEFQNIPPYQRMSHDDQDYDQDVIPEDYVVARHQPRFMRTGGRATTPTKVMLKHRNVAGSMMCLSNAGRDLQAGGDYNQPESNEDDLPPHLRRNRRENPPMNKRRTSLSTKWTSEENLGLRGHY

[8] = target: T3, RNA-binding protein pos-1 (Caenorhabditis elegans, UniProt G5EF15); assay: inhibitors of POS-1/mex-3 RNA binding, dose response, biochemical, fluorescence polarization (AID 1964);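 note: purified POS-1 fused to maltose binding protein made in E. coli; potency of compounds blocking POS-1 binding to fluorescent RNA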
T3 sequence (G5EF15 whole entry): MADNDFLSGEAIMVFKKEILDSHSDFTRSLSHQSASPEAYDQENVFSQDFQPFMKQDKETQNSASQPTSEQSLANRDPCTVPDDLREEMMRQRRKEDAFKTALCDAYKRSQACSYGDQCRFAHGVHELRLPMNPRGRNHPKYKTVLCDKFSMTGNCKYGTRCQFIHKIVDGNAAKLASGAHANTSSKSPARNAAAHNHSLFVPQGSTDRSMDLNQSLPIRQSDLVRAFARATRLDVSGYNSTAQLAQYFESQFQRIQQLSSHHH

[9] = A549 cell cytotoxicity, dose response, cytotoxicity control, plate reader, cherry-pick, antagonist series (AID 743412); type: functional, cell-based
[10] = HEK293 cell cytotoxicity, dose response, cytotoxicity control, plate reader, cherry-picked samples (AID 743446); type: functional, cell-based
Paired box protein Pax-8 = Paired box protein Pax-8 (Homo sapiens, UniProt Q06710); assay: inhibitors of PAX8-driven TPO luciferase reporter, dose response, RMG-I cells, cherry-pick (AID 687027); type: functional, cell-based;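 note: luciferase reporter driven by Pax8 target thyroperoxidase promoter measured by SteadyGlo luminescence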
[11] = MC4R antagonists, dose response, counter-screen for LGR2 antagonist project, cell-based, plate reader, cherry pick (AID 743444); type: functional;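 note: transfected HEK 293 cells stimulated with alpha-MSH peptide; potency of inhibitors of the alpha-MSH evoked signal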
[12] = LGR2 antagonists, dose response, cell-based, HEK293, CRE-luciferase reporter, cherry pick, set 2 (AID 743343); type: functional;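 note: transfected cells were stimulated with diluted bursicon conditioned medium after compound addition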
[13] = non-specific cell cytotoxicity, dose response, cytotoxicity control for PAX8 inhibitor project, plate reader, dry powder samples (AID 743021); type: functional, cell-based
[14] = NIH:OVCAR-3 ovarian cancer cell cytotoxicity, dose response, PAX8 inhibitor project, plate reader, dry powder samples (AID 743044); type: functional, cell-based
[15] = cytotoxicity in OVCAR8 ovarian cancer cells, dose response, PAX8 project, cell-based, plate reader, dry powder samples (AID 743197); type: functional; conditions: OVCAR-8
[16] = HepG2 cell cytotoxicity, dose response, cytotoxicity control, plate reader, cherry-pick, antagonist series (AID 743416); type: functional, cell-based
[17] = target: T4, DNA repair protein RAD52 homolog (Homo sapiens, UniProt P43351); type: functional, biochemical
T4 sequence (P43351 whole entry): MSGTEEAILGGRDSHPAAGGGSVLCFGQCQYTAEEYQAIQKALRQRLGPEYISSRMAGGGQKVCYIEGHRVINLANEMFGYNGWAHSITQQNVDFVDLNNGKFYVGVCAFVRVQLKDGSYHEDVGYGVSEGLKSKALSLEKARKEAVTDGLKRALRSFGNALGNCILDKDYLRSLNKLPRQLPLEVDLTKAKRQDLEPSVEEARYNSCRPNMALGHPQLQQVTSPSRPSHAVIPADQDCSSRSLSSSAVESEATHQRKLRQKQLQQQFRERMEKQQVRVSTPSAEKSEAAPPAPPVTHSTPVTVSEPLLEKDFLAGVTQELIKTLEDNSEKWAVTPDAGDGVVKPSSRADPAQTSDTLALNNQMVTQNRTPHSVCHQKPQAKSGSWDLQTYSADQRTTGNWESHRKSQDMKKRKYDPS

Cytochrome P450 2C9 = Cytochrome P450 2C9 (Homo sapiens, UniProt P11712)
Cytochrome P450 3A4 = Cytochrome P450 3A4 (Homo sapiens, UniProt P08684);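 note: CYP3A4 tested as one member of a cytochrome P450 panel screen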
Cytochrome P450 1A2 = target: T5, Cytochrome P450 1A2 (Homo sapiens, UniProt P05177);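 note: PubChem cytochrome P450 panel assay, CYP1A2 panel member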
T5 sequence (P05177 whole entry): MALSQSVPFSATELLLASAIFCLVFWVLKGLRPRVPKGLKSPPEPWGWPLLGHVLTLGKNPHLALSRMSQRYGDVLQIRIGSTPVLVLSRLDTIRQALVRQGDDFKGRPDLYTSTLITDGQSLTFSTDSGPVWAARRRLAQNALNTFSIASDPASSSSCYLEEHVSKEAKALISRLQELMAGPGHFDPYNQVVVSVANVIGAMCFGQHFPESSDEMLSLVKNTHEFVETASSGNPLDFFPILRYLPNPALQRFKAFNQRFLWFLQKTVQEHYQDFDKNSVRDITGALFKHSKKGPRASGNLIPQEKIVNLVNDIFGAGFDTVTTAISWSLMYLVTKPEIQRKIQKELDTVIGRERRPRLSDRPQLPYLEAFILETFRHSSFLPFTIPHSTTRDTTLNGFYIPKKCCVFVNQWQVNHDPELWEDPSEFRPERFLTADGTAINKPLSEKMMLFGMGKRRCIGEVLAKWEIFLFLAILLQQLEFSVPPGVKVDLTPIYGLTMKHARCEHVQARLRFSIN

[18] = target: T6, Probable nicotinate-nucleotide adenylyltransferase (Staphylococcus aureus (strain N315), UniProt P65502); type: functional, Staphylococcus aureus subsp. aureus N315; conditions: read-out: IC50_Mean;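 for IC50 Mean: confirmatory dose-response retesting of NadD inhibitor hits first found in an ultra-high-throughput screen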
[19] = target: Glucose-6-phosphate 1-dehydrogenase (Homo sapiens, UniProt P11413); assay: human G6PD enzyme inhibitors, dose response, selectivity assay for P. falciparum G6PD inhibitor project, biochemical, fluorescence (AID 504792); type: functional
[20] = HeLa cell cytotoxicity, dose response, cytotoxicity control for MgcRacGAP inhibitor project (AID 624300); type: functional
[21] = target: T7, Rac GTPase-activating protein 1 (Homo sapiens, UniProt Q9H0H5); assay: MgcRacGAP GTPase-activating activity inhibitors, confirmation, biochemical, ADP Hunter fluorescence, primary and confirmatory (AID 624330); type: functional
T7 sequence (Q9H0H5 whole entry): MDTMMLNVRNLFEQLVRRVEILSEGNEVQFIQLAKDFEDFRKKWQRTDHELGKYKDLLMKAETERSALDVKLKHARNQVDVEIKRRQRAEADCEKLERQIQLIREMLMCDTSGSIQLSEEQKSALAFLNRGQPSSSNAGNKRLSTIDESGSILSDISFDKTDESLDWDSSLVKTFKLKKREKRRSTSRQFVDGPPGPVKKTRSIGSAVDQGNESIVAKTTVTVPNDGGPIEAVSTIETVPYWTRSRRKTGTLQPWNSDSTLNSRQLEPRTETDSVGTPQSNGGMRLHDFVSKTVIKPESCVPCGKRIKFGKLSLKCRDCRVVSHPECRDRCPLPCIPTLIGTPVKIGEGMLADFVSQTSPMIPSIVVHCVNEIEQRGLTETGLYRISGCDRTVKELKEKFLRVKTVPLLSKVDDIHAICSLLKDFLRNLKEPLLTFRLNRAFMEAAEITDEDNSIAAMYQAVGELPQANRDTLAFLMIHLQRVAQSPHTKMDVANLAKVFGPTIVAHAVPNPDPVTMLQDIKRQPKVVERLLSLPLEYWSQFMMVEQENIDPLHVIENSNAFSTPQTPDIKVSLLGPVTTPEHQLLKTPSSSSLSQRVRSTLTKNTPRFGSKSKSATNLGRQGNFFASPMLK

[22] = target: Heat shock protein HSP 90-alpha (Homo sapiens, UniProt P07900); type: functional, organism-based
[23] = target: T6, Probable nicotinate-nucleotide adenylyltransferase; type: functional, Staphylococcus aureus subsp. aureus N315
[24] = target: T8, Hepatocyte nuclear factor 4-alpha (Homo sapiens, UniProt P41235); type: functional, cell-based;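 note: biochemical luminescence-based dose-response counterscreen measuring inhibition of HNF4 dimerization, run alongside a screen for blockers of ABHD5–perilipin-5 interaction; split luciferase complementation of HNF4 fusion proteins in cell lysate measuring dimerization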
T8 sequence (P41235 whole entry): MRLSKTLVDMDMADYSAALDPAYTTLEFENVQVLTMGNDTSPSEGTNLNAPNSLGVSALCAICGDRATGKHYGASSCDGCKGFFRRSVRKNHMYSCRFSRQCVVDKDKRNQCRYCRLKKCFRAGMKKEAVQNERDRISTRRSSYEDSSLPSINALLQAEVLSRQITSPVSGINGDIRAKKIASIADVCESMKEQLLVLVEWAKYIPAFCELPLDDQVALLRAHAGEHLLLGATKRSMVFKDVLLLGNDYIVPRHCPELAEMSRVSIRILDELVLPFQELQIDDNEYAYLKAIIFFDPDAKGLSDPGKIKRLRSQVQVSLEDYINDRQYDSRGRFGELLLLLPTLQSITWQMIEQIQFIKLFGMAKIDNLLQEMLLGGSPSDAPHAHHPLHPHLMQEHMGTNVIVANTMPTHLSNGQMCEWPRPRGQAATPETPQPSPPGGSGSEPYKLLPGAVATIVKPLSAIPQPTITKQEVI

Sequence of Glucose-6-phosphate 1-dehydrogenase (P11413 whole entry): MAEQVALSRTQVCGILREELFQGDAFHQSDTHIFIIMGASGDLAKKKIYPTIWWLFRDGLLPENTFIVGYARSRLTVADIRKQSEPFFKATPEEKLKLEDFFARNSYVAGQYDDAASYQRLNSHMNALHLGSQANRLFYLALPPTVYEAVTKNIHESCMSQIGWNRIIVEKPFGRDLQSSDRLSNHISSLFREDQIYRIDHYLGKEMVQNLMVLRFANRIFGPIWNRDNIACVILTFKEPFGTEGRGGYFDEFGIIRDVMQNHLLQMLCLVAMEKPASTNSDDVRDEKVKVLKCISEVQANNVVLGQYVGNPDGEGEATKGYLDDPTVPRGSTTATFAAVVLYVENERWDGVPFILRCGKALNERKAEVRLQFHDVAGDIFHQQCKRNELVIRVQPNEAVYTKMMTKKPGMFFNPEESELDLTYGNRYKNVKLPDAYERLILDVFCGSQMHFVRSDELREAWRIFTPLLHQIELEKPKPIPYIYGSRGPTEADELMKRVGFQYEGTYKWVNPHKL
Sequence of Cytochrome P450 2C9 (P11712 whole entry): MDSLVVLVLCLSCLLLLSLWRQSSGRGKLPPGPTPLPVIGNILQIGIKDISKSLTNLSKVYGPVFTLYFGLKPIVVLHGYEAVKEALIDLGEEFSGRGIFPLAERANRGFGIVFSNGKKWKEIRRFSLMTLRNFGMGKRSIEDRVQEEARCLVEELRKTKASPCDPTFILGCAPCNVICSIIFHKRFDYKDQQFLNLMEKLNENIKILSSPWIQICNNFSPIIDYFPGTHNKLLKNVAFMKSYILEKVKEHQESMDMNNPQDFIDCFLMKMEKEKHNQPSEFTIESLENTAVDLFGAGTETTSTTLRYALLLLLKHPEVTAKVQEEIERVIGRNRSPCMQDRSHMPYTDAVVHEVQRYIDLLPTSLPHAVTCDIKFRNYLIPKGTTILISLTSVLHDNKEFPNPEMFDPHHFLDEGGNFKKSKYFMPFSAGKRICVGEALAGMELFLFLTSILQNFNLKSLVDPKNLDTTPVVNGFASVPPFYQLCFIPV
Sequence of Cytochrome P450 3A4 (P08684 whole entry): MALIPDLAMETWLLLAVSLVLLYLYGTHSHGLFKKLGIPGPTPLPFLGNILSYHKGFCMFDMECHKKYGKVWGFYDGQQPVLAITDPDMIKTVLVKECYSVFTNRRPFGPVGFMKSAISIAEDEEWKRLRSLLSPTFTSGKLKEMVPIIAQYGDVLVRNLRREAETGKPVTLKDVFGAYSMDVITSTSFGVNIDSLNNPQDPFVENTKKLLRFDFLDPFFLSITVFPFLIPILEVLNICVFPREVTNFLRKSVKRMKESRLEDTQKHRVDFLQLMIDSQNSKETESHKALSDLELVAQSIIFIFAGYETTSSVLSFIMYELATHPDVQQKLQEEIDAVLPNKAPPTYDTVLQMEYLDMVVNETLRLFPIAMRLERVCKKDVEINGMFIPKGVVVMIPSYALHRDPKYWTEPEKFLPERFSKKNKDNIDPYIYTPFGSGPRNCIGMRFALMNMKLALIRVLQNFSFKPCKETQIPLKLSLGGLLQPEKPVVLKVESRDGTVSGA
Sequence of Paired box protein Pax-8 (Q06710 whole entry): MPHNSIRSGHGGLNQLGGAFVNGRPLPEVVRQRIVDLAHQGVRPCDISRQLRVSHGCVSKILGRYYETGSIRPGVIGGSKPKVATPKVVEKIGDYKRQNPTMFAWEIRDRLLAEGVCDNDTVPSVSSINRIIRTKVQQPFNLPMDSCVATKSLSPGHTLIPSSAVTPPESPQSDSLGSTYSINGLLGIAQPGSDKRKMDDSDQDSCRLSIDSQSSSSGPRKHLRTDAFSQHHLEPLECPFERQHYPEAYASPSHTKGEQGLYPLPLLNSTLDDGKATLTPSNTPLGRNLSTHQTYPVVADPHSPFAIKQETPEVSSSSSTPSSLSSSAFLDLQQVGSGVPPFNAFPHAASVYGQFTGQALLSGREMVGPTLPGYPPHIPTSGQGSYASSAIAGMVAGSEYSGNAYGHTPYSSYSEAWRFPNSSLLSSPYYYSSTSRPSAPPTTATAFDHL

AC50 [6]: 17.9 µM (active) | EC50 [7]: 30 µM (active) | EC50 [8]: 4.95 µM (inconclusive)
SMILES: CCNC(=O)c1cc2c(=O)n3cccc(C)c3nc2n(CCc2ccccc2)c1=N

AC50 [17]: 10.5 µM (active) | AC50 [6]: 25.2 µM (active) | EC50 [7]: > 300 µM (not active) | EC50 [8]: > 300 µM (not active)
SMILES: N=c1c(C(=O)NCCN2CCOCC2)cc2c(=O)n3ccccc3nc2n1CCc1ccccc1

IC50 [24]: 2.85 µM (active)
SMILES: CCCCCNC(=O)C(c1ccc(C(F)(F)F)cc1)n1c(=O)c(-c2ccco2)nc2ccccc21 (stereo not drawn)

Continued, molecule first:

SMILES: C/C=C/c1ccc(OCCOCCNCc2ccccc2)c(OC)c1
AC50 [1]: 33.7 µM (active) | AC50 [2]: 5.73 µM (active) | AC50 [3]: 12.2 µM (active) | AC50 [4]: 4.93 µM (active) | AC50 [5]: 3.51 µM (active)

SMILES: O=S(=O)(c1ccccc1F)N1CC[C@@H]2[C@H]1c1cc(-c3cccc(F)c3)ccc1N[C@@H]2CO
AC50 [9]: 8.1 µM (active) | AC50 [10]: 15.3 µM (active) | AC50 (Paired box protein Pax-8): 4.09 µM (active) | AC50 [11]: 11.2 µM (active) | AC50 [12]: 11.1 µM (active) | AC50 [13]: 5.52 µM (active) | AC50 [14]: 49 µM (active) | AC50 [15]: 15.6 µM (active) | AC50 [16]: 18.6 µM (active)

SMILES: CCOC(=O)c1c(NC(=O)c2ccc(S(=O)(=O)N3CCOCC3)cc2)sc2c1CCN(C)C2
AC50 [17]: 11.6 µM (active) | AC50 (Cytochrome P450 2C9): 14.1 µM (inconclusive) | AC50 (Cytochrome P450 3A4): inconclusive | AC50 [6]: 15.3 µM (active) | AC50 (Cytochrome P450 1A2): 12.6 µM (inconclusive)

SMILES: Cc1ccc(NC(=O)c2ccc(-c3nn(C)c(=O)c4ccccc34)cc2)cc1
AC50 [1]: 57.8 µM (active) | AC50 [2]: 3.31 µM (active) | AC50 [3]: 6.49 µM (active) | AC50 [4]: 16.8 µM (active) | AC50 [5]: 24.9 µM (active)

SMILES: O=[N+]([O-])c1cccc(SSc2cccc([N+](=O)[O-])c2)c1
IC50 [18]: 3.73 µM (active) | IC50 [19]: > 80 µM (inactive) | CC50 [20]: 100 µM (active) | IC50 [21]: 53.9 µM (active) | AC50 [22]: 4.25 µM (active) | IC50 [23]: 1.62 µM (active)
